Experimental data published in US9902713B2, “Neuroprotective compounds and use thereof” (BOARD OF REGENTS OF THE UNIVERSITY OF TEXAS SYSTEM, priority 2013, dated 2018).

Key:
blood-brain barrier = experiment: Blood brain barrier permeability assay (Evans blue); format: in vivo; conditions: sham-injured mice, 3 days of daily treatment
Excerpt: On the basis of the promising results seen with administration of P7C3-A20 or P7C3-S243 immediately after injury, we sought to determine whether P7C3-S243 could offer protective efficacy when treatment was initiated later. Because TBI can disrupt the blood-brain barrier (BBB), we first examined BBB integrity over time by means of the Evans blue assay. Evans blue is an azo dye with tight affinity for albumin, such that in serum virtually all Evans blue is albumin-bound. Normally, serum albumin cannot cross the BBB. However, when the BBB is compromised, albumin and its bound Evans blue can enter the CNS. The magnitude of Evans blue accumulation in the brain can then be spectrophotometrically determined in order to monitor disruption of the BBB (Uyama et al., 1988; Hawkins and Egleton, 2006). With this technique, we observed significant disruption of the BBB 6 hours after blast-injury, with integrity of the BBB recovering to normal 18 hours later (FIG. 21B).
Blood brain barrier (BBB) permeability assay. […] To quantify the extravasation of albumin-bound EBD in each brain, tissue was weighed and incubated for 30 minutes at room temperature in 50% Tricholoracetic acid (TCA) in PBS at a 3:1 μl/mg ratio. […] Fluorescence was measured using a SpectraMax M2^e (Molecular Devices) in 100 μl of samples plated on a 96-well plate at excitation wavelength of 620 nm and an emission wavelength of 680 nm.

3A4 = 3A4 (Homo sapiens, UniProt P08684); experiment: Cytochrome P450 inhibition; format: in vitro ADME
Chain of 3A4 (P08684 whole entry): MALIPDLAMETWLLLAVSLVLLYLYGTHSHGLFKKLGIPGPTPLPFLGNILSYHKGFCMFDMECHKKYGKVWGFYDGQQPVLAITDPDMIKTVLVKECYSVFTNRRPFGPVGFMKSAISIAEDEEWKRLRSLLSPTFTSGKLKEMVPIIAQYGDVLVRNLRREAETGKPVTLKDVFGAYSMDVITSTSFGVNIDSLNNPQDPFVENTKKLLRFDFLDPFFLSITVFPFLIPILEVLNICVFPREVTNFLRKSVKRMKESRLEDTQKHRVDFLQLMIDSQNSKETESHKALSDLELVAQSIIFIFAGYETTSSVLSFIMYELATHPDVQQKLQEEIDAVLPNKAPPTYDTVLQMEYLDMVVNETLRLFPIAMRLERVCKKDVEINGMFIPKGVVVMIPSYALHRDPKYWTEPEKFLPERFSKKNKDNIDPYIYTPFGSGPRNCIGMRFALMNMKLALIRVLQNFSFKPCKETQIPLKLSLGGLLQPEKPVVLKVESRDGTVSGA

[1] = test system: newborn hippocampal neurons; conditions: previously reported; cited from earlier work
[2] = test system: cerebral cortical neurons; conditions: previously reported; cited from earlier work

For COc1cccc(NCC(F)Cn2c3ccc(Br)cc3c3cc(Br)ccc32)n1 (racemic) [P7C3-S243, N-(3-(3,6-dibromo-9H-carbazol-9-yl)-2-fluoropropyl)-6-methoxypyridin-2-amine], the BBB integrity (blood-brain barrier) was “did not compromise BBB integrity”.
In the case of COc1cccc(NCC(F)Cn2c3ccc(Br)cc3c3cc(Br)ccc32)n1 (single isomer, unassigned; (-)) [(−)-P7C3-S243, (−)-N-(3-(3,6-dibromo-9H-carbazol-9-yl)-2-fluoropropyl)-6-methoxypyridin-2-amine], the “sensitivity of cytochrome P450” value (3A4) is reported as “insensitive”.
For COc1cccc(NCC(F)Cn2c3ccc(Br)cc3c3cc(Br)ccc32)c1 (stereo not shown) [P7C3-A20, N-(3-(3,6-dibromo-9H-carbazol-9-yl)-2-fluoropropyl)-3-methoxyaniline], the “activity in the in vivo hippocampal neuroprotection assay (previous studies)” value [1] is listed as “substantially improved activity” and the “protection of cerebral cortical neurons” value [2] is listed as “protect rat cerebral cortical neurons”.
